The values that follow come from US11878965B2, “Inhibitors of peptidylarginine deiminases” (Gilead Sciences, Inc., priority 2020, dated 2024).

The assay concerns the target human PAD4 (Homo sapiens (Human), UniProt Q9UM07). In words: In Vitro PAD4 BAEE Biochemical Assay. The settings on record: geometric mean of multiple experiments. An outline of the steps: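 Recombinant human PAD4 (His-SUMO tag removed, E. coli-expressed), 5 nM, preincubated with compound and 2 mM CaCl2 30 min at 25 °C in MOPS pH 7.6 with DTT; 3 mM BAEE added for 2 h at 25 °C, EDTA stop. Released ammonia detected by o-phthalaldehyde/DTT fluorescence (ex 405, em 535 nm).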

The mark [1] stands for this setting: human PAD4, BAEE substrate, 5 nM PAD4, 2 mM calcium chloride, 3 mM BAEE.

Sequence of human PAD4 (Q9UM07 2-663): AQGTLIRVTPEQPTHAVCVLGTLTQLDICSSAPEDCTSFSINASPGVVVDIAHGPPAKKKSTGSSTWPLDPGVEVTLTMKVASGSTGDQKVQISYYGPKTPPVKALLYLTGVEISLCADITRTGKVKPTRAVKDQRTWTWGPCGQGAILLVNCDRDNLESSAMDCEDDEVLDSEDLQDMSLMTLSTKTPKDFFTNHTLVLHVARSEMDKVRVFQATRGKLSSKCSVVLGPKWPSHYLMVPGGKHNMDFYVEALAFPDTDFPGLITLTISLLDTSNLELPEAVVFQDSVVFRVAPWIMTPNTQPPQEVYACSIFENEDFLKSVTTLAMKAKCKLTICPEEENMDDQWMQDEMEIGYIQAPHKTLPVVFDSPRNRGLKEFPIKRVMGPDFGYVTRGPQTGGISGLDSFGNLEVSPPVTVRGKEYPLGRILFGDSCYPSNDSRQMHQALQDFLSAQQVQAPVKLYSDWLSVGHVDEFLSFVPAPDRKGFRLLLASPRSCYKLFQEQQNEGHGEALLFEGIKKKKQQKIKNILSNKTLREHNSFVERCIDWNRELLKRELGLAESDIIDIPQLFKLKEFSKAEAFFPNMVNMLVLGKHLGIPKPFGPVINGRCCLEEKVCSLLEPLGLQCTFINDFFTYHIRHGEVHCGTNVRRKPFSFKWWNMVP

As for `COc1cc(C(=O)N2C[C@H](N)CCN2C)cc2nc(-c3cc4ccc([C@@H](C)NC(=O)C(F)(F)c5ccccc5)nc4n3CC3CC3)n(C)c12` [Example 167, N-((R)-1-(2-(5-((R)-5-amino-2-methylhexahydropyridazine-1-carbonyl)-7-methoxy-1-methyl-1H-benzo[d]imidazol-2-yl)-1-(cyclopropylmethyl)-1H-pyrrolo[2,3-b]pyridin-6-yl)ethyl)-2,2-difluoro-2-phenylacetamide], under setting [1], the concentration for half-maximal inhibition (IC50) – broadly, the midpoint of a concentration-inhibition curve – turned out to be 388 nM.
As for `COc1cc(C(=O)N2C[C@H](N)[C@@H]3CC[C@H]2C3)cc2nc(-c3cc4ccc([C@@H](C)NC(=O)C(C)(C)CC(F)(F)F)nc4n3CC3CC3)n(C)c12` [Example 329, N-((R)-1-(2-(5-((1S,4R,5R)-4-amino-2-azabicyclo[3.2.1]octane-2-carbonyl)-7-methoxy-1-methyl-1H-benzo[d]imidazol-2-yl)-1-(cyclopropylmethyl)-1H-pyrrolo[2,3-b]pyridin-6-yl)ethyl)-4,4,4-trifluoro-2,2-dimethylbutanamide], for the setting “recombinant PAD4 5 nM, 2 mM calcium chloride, 3 mM BAEE substrate”, the half-maximal inhibitory concentration (IC50) worked out at 129 nM.
In the case of `COc1cc(C(=O)N2C[C@H](N)CCN2C)cc2nc(-c3cc4ccc([C@@H](C)NC(=O)C5(C)CC5)nc4n3CC3CC3)n(C)c12` [Example 200, N-((R)-1-(2-(5-((R)-5-amino-2-methylhexahydropyridazine-1-carbonyl)-7-methoxy-1-methyl-1H-benzo[d]imidazol-2-yl)-1-(cyclopropylmethyl)-1H-pyrrolo[2,3-b]pyridin-6-yl)ethyl)-1-methylcyclopropane-1-carboxamide], the IC50 under setting [1] came to 64.2 nM.
Regarding `COC(=O)N(C)c1ccc2cc(-c3nc4cc(C(=O)N5[C@H]6CC[C@@H]5[C@H](N)C6)cc(OC)c4n3C)n(CC3CC3)c2c1` [Example 114, methyl (2-(5-((1R,2R,4S)-2-amino-7-azabicyclo[2.2.1]heptane-7-carbonyl)-7-methoxy-1-methyl-1H-benzo[d]imidazol-2-yl)-1-(cyclopropylmethyl)-1H-indol-6-yl)(methyl)carbamate], the IC50 under setting [1] came to 34.5 nM.
Still for that read-out and setting: to `CN(c1ccc2cc(-c3nc4cc(C(=O)N5[C@H]6CC[C@@H]5[C@H](N)C6)cc5c4n3CCO5)n(CC3CC3)c2n1)S(C)(=O)=O` [Example 90, N-(2-(7-((1R,2R,4S)-2-amino-7-azabicyclo[2.2.1]heptane-7-carbonyl)-3,4-dihydro-5-oxa-1,2a-diazaacenaphthylen-2-yl)-1-(cyclopropylmethyl)-1H-pyrrolo [2,3-b]pyridin-6-yl)-N-methylmethanesulfonamide] belongs 214 nM.
`COc1cc(C(=O)N2CC3(CCNC3)C2)cc2nc(-c3cc4ccc(N(C(F)F)S(C)(=O)=O)nc4n3CC3CC3)n(C)c12` [Example 67, N-(1-(cyclopropylmethyl)-2-(7-methoxy-1-methyl-5-(2,6-diazaspiro[3.4]octane-2-carbonyl)-1H-benzo[d]imidazol-2-yl)-1H-pyrrolo[2,3-b]pyridin-6-yl)-N-(difluoromethyl) methanesulfonamide]: the IC50 under setting [1] was 5080 nM.
The same measure, in the same setting: to `COc1cc(C(=O)N2[C@H]3CC[C@@H]2[C@H](N)C3)cc2nc(-c3cc4ccc([C@@H](C)NC(=O)Cn5cccn5)nc4n3CC3CC3)n(C)c12` [Example 174, N-((R)-1-(2-(5-((1R,2R,4S)-2-amino-7-azabicyclo[2.2.1]heptane-7-carbonyl)-7-methoxy-1-methyl-1H-benzo[d]imidazol-2-yl)-1-(cyclopropylmethyl)-1H-pyrrolo[2,3-b]pyridin-6-yl)ethyl)-2-(1H-pyrazol-l-yl)acetamide] belongs 45.1 nM; to `COc1cc(C(=O)N2C[C@@H]3C[C@@H](N)[C@H]2C3)cc2nc(-c3cc4ccc(N(C(F)F)S(C)(=O)=O)nc4n3CC3CC3)n(C)c12` [Example 82, N-(2-(5-((1R,4R,6R)-6-amino-2-azabicyclo[2.2.1]heptane-2-carbonyl)-7-methoxy-1-methyl-1H-benzo[d]imidazol-2-yl)-1-(cyclopropylmethyl)-1H-pyrrolo[2,3-b]pyridin-6-yl)-N-(difluoromethyl) methanesulfonamide], 47600 nM.
